This is an account of results in US8926961B2, “HPV E6 protein T cell epitopes and uses thereof” (Board Of Trustees of The University Of Arkansas, priority 2007, dated 2015).

Data set [1] concerns Human Leukocyte Antigen-matched HPV16 E7 11-20-pulsed targets. As to conditions: cited from earlier work.
For data set [2], the system named is peptide-pulsed Epstein-Barr Virus-transformed B-lymphoblastoid cell line cells. The experiment in a line: Chromium release assay, subject 18 T-cell clones as effectors. Format: cell-based, human. The settings on record: clones #83-18 and #87-18. The protocol:
(§1) To identify putative restricting Human Leukocyte Antigen class I molecule, enzyme-linked immunospot assays were performed, as described above, using autologous Epstein-Barr Virus-transformed B-lymphoblastoid cell line cells sharing one or a few class I molecules with the subjects. The results were confirmed using chromium release assays in which at least two autologous Epstein-Barr Virus-transformed B-lymphoblastoid cell line cells expressing the putative Human Leukocyte Antigen class I molecule were tested. The Epstein-Barr Virus-transformed B-lymphoblastoid cell line cells were labeled with 100 μCi of sodium chromate (Na2^51CrO4), and were incubated with 10 μM of positive peptide. After plating the cells in 96-wells plate at 3×10^3/well, effector cells were added at multiple effector to target cell (E:T) ratios. After 5 hr of incubation, the supernatants were harvested and radioactivity was counted with a gamma counter (Packard Instruments, Meriden, Conn.). Percentage specific lysis was calculated as described (39).

Data set [3] has as its system HPV 16 E6 peptide-specific T-cell clones (subject 18). Type of data set: cell-based, human. The settings on record: eight screen-positive T-cell clones of subject 18; HPV16 E6 121-145 region; 10 μM.
Data set [4] relates to Human Leukocyte Antigen class I molecule. The data set can be described thus: Identification of the restricting Human Leukocyte Antigen molecules. Format: cell-based. The protocol: as §1
Data set [5] deals with peptide-pulsed Epstein-Barr Virus-transformed B-lymphoblastoid cell line cells. The data set can be described thus: Chromium release assay, subject 2 T-cell clones as effectors. Format: cell-based, human. As to conditions: clones #76-2 and #78-2; three allogeneic B-LCL expressing HLA-B62; 10 μM peptide. As to the method: as §1
For data set [6], the system named is HPV 16 E6 peptide-specific T-cell clones (subject 2). Format: cell-based, human.
The next data set concerns CD4+ T-cell. The experiment in a line: Interferon-γ ELISPOT assay of CD4+ T-cell responses in subjects with abnormal Pap smear. Format: cell-based, human. The protocol:
The role of CD4+ T-cell responses to the HPV-16 E6 and E7 proteins was examined in the outcomes of subjects being studied for abnormal Papanicolaouu (Pap) smear results. Subjects with a recent history of abnormal Papanicolaouu smear were eligible, and colposcopy guided biopsy was performed at enrollment. Interferon-γ enzyme-linked immunospot assay, and fluorescent activated cell sorter analysis were performed. Subjects with histological diagnoses of cervical intraepithelial neoplasia 1, 2, or 3 were considered to have short-term persistence of cervical abnormality and were called “persistors” (n=51) while those of normal histology were designated to be “regressors” (n=33). For the CD4+ T-cell responses, not only were the responses to E6 overall (Table 8) associated with a favorable clinical outcome, but also to a number of regions within the E6 protein. Furthermore, the regressors were more likely to have 2 or more E6-positive or E7-positive peptide regions as compared to the persistors (p=0.0035 or p=0.042 respectively) (Table 9).

For a further data set, the system named is CD8 T-cell. The experiment in a line: ELISPOT assay of CD8 T-cell responses in women followed for abnormal Pap smear. Type of data set: cell-based, human. As to conditions: women with abnormal Pap smear. As to the method: Women who were followed, but untreated for abnormal Pap smear results, were enrolled. HPV-DNA testing using the Linear Array HPV Geotyping Test (Roche Diagnostics, Indianapolis, Ind.) and enzyme-linked immunospot (ELISPOT) assay using the HPV 16 E6 and E7 antigens were performed. The subjects were categorized into three groups: regressor (n=32), persistor/progressor (n=33), or indeterminate (n=20) based on comparisons of pathological diagnoses (Pap smear or biopsy) between the last clinic visit and the current clinic visit at which blood samples were collected.

For data set [7], the system named is Human Leukocyte Antigen-B18. As to conditions: cited from earlier work; for Human Leukocyte Antigen restriction: healthy donor PBMC.
[8] abbreviates: high-risk HPV-positive subjects.
[9] abbreviates: subjects positive for HPV-16 related types.

Turning to YMLDLQPETT [SEQ ID NO. 26], the “patients whose cytotoxic T lymphocytes lysed peptide-pulsed targets” value in data set [1] (cervical cancer patients) was “two of three patients”. The “Human Leukocyte Antigen restriction” value in data set [1] is listed as “Human Leukocyte Antigen-A2”.
In the case of “E6 131-145: 15-mer peptide in the HPV16 E6 121-145 region (RFHNIRGRWTGRCMS; UniProt P03126 131-145, looked up, fragment)”, the “chromium release assay result” value in data set [2] (autologous B-LCL and B-LCL expressing A68 or A6801) is “positive”; in [2] (other allogeneic B-LCL including HLA-6802), “negative”. For the same substance, the “enzyme-linked immunospot response to individual 15-mer peptides” value in [3] was “positive”.
As to “KFYSKISEY (E6 75-83 peptide from immunodominant epitope region of Human Papilloma Virus 16 E6 protein) [SEQ ID NO. 1]”, in [4], the “Human Leukocyte Antigen Restriction Element” value is “HLA-B62”. The “lysis of peptide-pulsed B-LCL in chromium release assay” value in data set [5] is “lysed”. The “serial dilution of the two peptides in enzyme-linked immunospot assay” value in data set [6] (10^−5M to 10^−10M) is listed as “equivalent”. Also, the “recognition of peptide-pulsed B-LCL by E6 75-83-specific T cell clones” value in data set [6] (clones #76-2 and #78-2, autologous and five allogeneic HLA-B62 B-LCL, 10 μM) was “recognized”. For the same substance, in data set [6] (subject 2 T-cell clones), the “number of spot forming units, 9-mer compared with surrounding 10-mers and 8-mers within” value is on record as “comparable number of spot forming units”; the “spot forming units per well, series of 9-mer peptides within E6 71-85” value is reported as “most number of spot forming units per well”.
For the substance “YGTTLEQQYNKPLCDLLIRCINCQK (E6 91-115 peptide from immunodominant epitope region of Human Papilloma Virus 16 E6 protein) [SEQ ID NO. 29]”, the “CD4+ T-cell responses, persistors” value turned out to be 2% in the data set with CD4+ T-cell (all subjects), 2% with CD4+ T-cell (setting [8]) and 0% with CD4+ T-cell (setting [9]). Also, the “CD4+ T-cell responses, regressors” value with CD4+ T-cell (all subjects) is 18%; in the data set on CD4+ T-cell (setting [8]), 23%; in the data set with CD4+ T-cell (setting [9]) it was 22%. For the same substance, the “Responses (number of immune responses detected towards the region)” value in the data set on CD8 T-cell was determined as 11.
For the substance “EPDRAHYNIVTFCCKCDSTLRLCVQ (E7 46-70 peptide from immunodominant epitope region of Human Papilloma Virus 16 E7 protein) [SEQ ID NO. 30]”, the “Responses (number of immune responses detected towards the region)” value with CD8 T-cell stood at 10.
Take “ISEYRHYCY (E6 80-88 peptide from immunodominant epitope region of Human Papilloma Virus 16 E6 protein) [SEQ ID NO. 24]”: in [7], the “recognition by T cells from a patient with high-grade squamous intraepithelial lesion” value is recorded as “naturally processed epitope that could be recognized by T cells” and the “Human Leukocyte Antigen restriction” value is reported as “Human Leukocyte Antigen-B18”.
Take “RREVYDFAFRDLCIVYRDGNPYAVC (E6 46-70 peptide from immunodominant epitope region of Human Papilloma Virus 16 E6 protein) [SEQ ID NO. 31]”: the “Responses (number of immune responses detected towards the region)” value in the data set on CD8 T-cell stood at 8.
On to “QAEPDRAHY (E7 44-52 peptide from immunodominant epitope region of Human Papilloma Virus 16 E7 protein) [SEQ ID NO. 28]”, for which the “Human Leukocyte Antigen restriction” value in data set [7] is “Human Leukocyte Antigen-B18”.
